Measured values taken from patent US20220370406A1, “METHOD OF TREATING STIMULANT USE DISORDER USING A COMBINATION OF TOPIRAMATE AND PHENTERMINE” (University of Kentucky Research Foundation, priority 2019, published 2022).

Test system: participants with cocaine use disorder
Assay: Medical safety session: subjective effects questionnaires after intranasal cocaine
Type: in vivo, human
Description: Participants completed one, single-blind medical safety session to ensure they could tolerate intranasal cocaine. Intranasal cocaine doses (i.e., 0 [placebo], 10, 20, 40 and 80 mg) were administered in ascending order. Placebo (i.e., 0 mg) was administered at 0900 hours. The subjective-effect questionnaires and cardiovascular measures described below were completed 30 minutes before placebo administration (i.e., 0830 hours), immediately following and at 15-minute intervals for 45 minutes. Subsequent cocaine administrations were separated by 45 minutes.

[1] = Cocaine 10 mg, Topiramate (0 mg/day) group
[2] = Cocaine 10 mg, Topiramate (50 mg/day) group
[3] = Cocaine 10 mg, Topiramate (100 mg/day) group
[4] = Cocaine 20 mg, Topiramate (0 mg/day) group
[5] = Cocaine 20 mg, Topiramate (50 mg/day) group
[6] = Cocaine 20 mg, Topiramate (100 mg/day) group

Compound: COC(=O)[C@H]1[C@@H](OC(=O)c2ccccc2)C[C@@H]2CC[C@H]1N2C [Cocaine, cocaine]
- Adjective Rating Scales Sedative, mean peak effect [1]: 2.0
- Adjective Rating Scales Stimulant, mean peak effect [1]: 6.1
- Drug-Effect Questionnaire Active-Alert-Energetic, mean peak effect [1]: 17.0
- Drug-Effect Questionnaire Any Effect, mean peak effect [1]: 21.5
- Drug-Effect Questionnaire Bad Effects, mean peak effect [1]: 4.4
- Drug-Effect Questionnaire Euphoric, mean peak effect [1]: 10.1
- Drug-Effect Questionnaire Good Effects, mean peak effect [1]: 21.5
- Drug-Effect Questionnaire High, mean peak effect [1]: 17.3
- Drug-Effect Questionnaire Irregular Heart Beat, mean peak effect [1]: 7.0
- Drug-Effect Questionnaire Like Drug, mean peak effect [1]: 25.2
- Drug-Effect Questionnaire Nausea-Queasy-Sick, mean peak effect [1]: 3.3
- Drug-Effect Questionnaire Nervous-Anxious, mean peak effect [1]: 5.1
- Drug-Effect Questionnaire Performance Impaired, mean peak effect [1]: 4.9
- Drug-Effect Questionnaire Performance Improved, mean peak effect [1]: 10.7
- Drug-Effect Questionnaire Restless, mean peak effect [1]: 7.9
- Drug-Effect Questionnaire Rush, mean peak effect [1]: 15.5
- Drug-Effect Questionnaire Shaky-Jittery, mean peak effect [1]: 3.9
- Drug-Effect Questionnaire Sluggish-Fatigued-Lazy, mean peak effect [1]: 8.1
- Drug-Effect Questionnaire Stimulated, mean peak effect [1]: 13.8
- Drug-Effect Questionnaire Talkative-Friendly, mean peak effect [1]: 17.0
- Drug-Effect Questionnaire Willing to Pay For, mean peak effect [1]: 20.6
- Drug-Effect Questionnaire Willing to Take Again, mean peak effect [1]: 26.3
- Adjective Rating Scales Sedative, mean peak effect [2]: 3.9
- Adjective Rating Scales Stimulant, mean peak effect [2]: 8.7
- Drug-Effect Questionnaire Active-Alert-Energetic, mean peak effect [2]: 11.2
- Drug-Effect Questionnaire Any Effect, mean peak effect [2]: 7.0
- Drug-Effect Questionnaire Bad Effects, mean peak effect [2]: 1.2
- Drug-Effect Questionnaire Euphoric, mean peak effect [2]: 3.4
- Drug-Effect Questionnaire Good Effects, mean peak effect [2]: 6.4
- Drug-Effect Questionnaire High, mean peak effect [2]: 6.1
- Drug-Effect Questionnaire Irregular Heart Beat, mean peak effect [2]: 0.6
- Drug-Effect Questionnaire Like Drug, mean peak effect [2]: 9.2
- Drug-Effect Questionnaire Nausea-Queasy-Sick, mean peak effect [2]: 1.2
- Drug-Effect Questionnaire Nervous-Anxious, mean peak effect [2]: 0.3
- Drug-Effect Questionnaire Performance Impaired, mean peak effect [2]: 0.9
- Drug-Effect Questionnaire Performance Improved, mean peak effect [2]: 3.3
- Drug-Effect Questionnaire Restless, mean peak effect [2]: 1.2
- Drug-Effect Questionnaire Rush, mean peak effect [2]: 5.9
- Drug-Effect Questionnaire Shaky-Jittery, mean peak effect [2]: 1.4
- Drug-Effect Questionnaire Sluggish-Fatigued-Lazy, mean peak effect [2]: 5.4
- Drug-Effect Questionnaire Stimulated, mean peak effect [2]: 11.9
- Drug-Effect Questionnaire Talkative-Friendly, mean peak effect [2]: 4.7
- Drug-Effect Questionnaire Willing to Pay For, mean peak effect [2]: 5.4
- Drug-Effect Questionnaire Willing to Take Again, mean peak effect [2]: 12.0
- Adjective Rating Scales Sedative, mean peak effect [3]: 3.1
- Adjective Rating Scales Stimulant, mean peak effect [3]: 10.6
- Drug-Effect Questionnaire Active-Alert-Energetic, mean peak effect [3]: 6.4
- Drug-Effect Questionnaire Any Effect, mean peak effect [3]: 10.7
- Drug-Effect Questionnaire Bad Effects, mean peak effect [3]: 0.2
- Drug-Effect Questionnaire Euphoric, mean peak effect [3]: 5.6
- Drug-Effect Questionnaire Good Effects, mean peak effect [3]: 14.5
- Drug-Effect Questionnaire High, mean peak effect [3]: 7.4
- Drug-Effect Questionnaire Irregular Heart Beat, mean peak effect [3]: 2.8
- Drug-Effect Questionnaire Like Drug, mean peak effect [3]: 10.1
- Drug-Effect Questionnaire Nausea-Queasy-Sick, mean peak effect [3]: 6.8
- Drug-Effect Questionnaire Nervous-Anxious, mean peak effect [3]: 0.2
- Drug-Effect Questionnaire Performance Impaired, mean peak effect [3]: 0.2
- Drug-Effect Questionnaire Performance Improved, mean peak effect [3]: 2.1
- Drug-Effect Questionnaire Restless, mean peak effect [3]: 0.7
- Drug-Effect Questionnaire Rush, mean peak effect [3]: 6.9
- Drug-Effect Questionnaire Shaky-Jittery, mean peak effect [3]: 0.3
- Drug-Effect Questionnaire Sluggish-Fatigued-Lazy, mean peak effect [3]: 0.5
- Drug-Effect Questionnaire Stimulated, mean peak effect [3]: 7.7
- Drug-Effect Questionnaire Talkative-Friendly, mean peak effect [3]: 7.8
- Drug-Effect Questionnaire Willing to Pay For, mean peak effect [3]: 8.6
- Drug-Effect Questionnaire Willing to Take Again, mean peak effect [3]: 12.6
- Adjective Rating Scales Sedative, mean peak effect [4]: 4.6
- Adjective Rating Scales Stimulant, mean peak effect [4]: 8.4
- Drug-Effect Questionnaire Active-Alert-Energetic, mean peak effect [4]: 23.5
- Drug-Effect Questionnaire Any Effect, mean peak effect [4]: 28.6
- Drug-Effect Questionnaire Bad Effects, mean peak effect [4]: 4.5
- Drug-Effect Questionnaire Euphoric, mean peak effect [4]: 11.5
- Drug-Effect Questionnaire Good Effects, mean peak effect [4]: 26.1
- Drug-Effect Questionnaire High, mean peak effect [4]: 20.0
- Drug-Effect Questionnaire Irregular Heart Beat, mean peak effect [4]: 8.8
- Drug-Effect Questionnaire Like Drug, mean peak effect [4]: 27.8
- Drug-Effect Questionnaire Nausea-Queasy-Sick, mean peak effect [4]: 2.9
- Drug-Effect Questionnaire Nervous-Anxious, mean peak effect [4]: 8.5
- Drug-Effect Questionnaire Performance Impaired, mean peak effect [4]: 10.4
- Drug-Effect Questionnaire Performance Improved, mean peak effect [4]: 12.0
- Drug-Effect Questionnaire Restless, mean peak effect [4]: 8.9
- Drug-Effect Questionnaire Rush, mean peak effect [4]: 19.4
- Drug-Effect Questionnaire Shaky-Jittery, mean peak effect [4]: 8.8
- Drug-Effect Questionnaire Sluggish-Fatigued-Lazy, mean peak effect [4]: 6.8
- Drug-Effect Questionnaire Stimulated, mean peak effect [4]: 18.7
- Drug-Effect Questionnaire Talkative-Friendly, mean peak effect [4]: 18.6
- Drug-Effect Questionnaire Willing to Pay For, mean peak effect [4]: 24.9
- Drug-Effect Questionnaire Willing to Take Again, mean peak effect [4]: 32.9
- Adjective Rating Scales Sedative, mean peak effect [5]: 2.8
- Adjective Rating Scales Stimulant, mean peak effect [5]: 8.6
- Drug-Effect Questionnaire Active-Alert-Energetic, mean peak effect [5]: 12.8
- Drug-Effect Questionnaire Any Effect, mean peak effect [5]: 9.9
- Drug-Effect Questionnaire Bad Effects, mean peak effect [5]: 0.3
- Drug-Effect Questionnaire Euphoric, mean peak effect [5]: 12.4
- Drug-Effect Questionnaire Good Effects, mean peak effect [5]: 11.2
- Drug-Effect Questionnaire High, mean peak effect [5]: 13.1
- Drug-Effect Questionnaire Irregular Heart Beat, mean peak effect [5]: 0.6
- Drug-Effect Questionnaire Like Drug, mean peak effect [5]: 14.6
- Drug-Effect Questionnaire Nausea-Queasy-Sick, mean peak effect [5]: 2.2
- Drug-Effect Questionnaire Nervous-Anxious, mean peak effect [5]: 0.0
- Drug-Effect Questionnaire Performance Impaired, mean peak effect [5]: 2.4
- Drug-Effect Questionnaire Performance Improved, mean peak effect [5]: 5.4
- Drug-Effect Questionnaire Restless, mean peak effect [5]: 0.7
- Drug-Effect Questionnaire Rush, mean peak effect [5]: 14.1
- Drug-Effect Questionnaire Shaky-Jittery, mean peak effect [5]: 1.1
- Drug-Effect Questionnaire Sluggish-Fatigued-Lazy, mean peak effect [5]: 0.8
- Drug-Effect Questionnaire Stimulated, mean peak effect [5]: 15.6
- Drug-Effect Questionnaire Talkative-Friendly, mean peak effect [5]: 10.2
- Drug-Effect Questionnaire Willing to Pay For, mean peak effect [5]: 7.6
- Drug-Effect Questionnaire Willing to Take Again, mean peak effect [5]: 10.2
- Adjective Rating Scales Sedative, mean peak effect [6]: 3.7
- Adjective Rating Scales Stimulant, mean peak effect [6]: 11.1
- Drug-Effect Questionnaire Active-Alert-Energetic, mean peak effect [6]: 11.0
- Drug-Effect Questionnaire Any Effect, mean peak effect [6]: 11.7
- Drug-Effect Questionnaire Bad Effects, mean peak effect [6]: 2.2
- Drug-Effect Questionnaire Euphoric, mean peak effect [6]: 5.7
- Drug-Effect Questionnaire Good Effects, mean peak effect [6]: 10.2
- Drug-Effect Questionnaire High, mean peak effect [6]: 12.8
- Drug-Effect Questionnaire Irregular Heart Beat, mean peak effect [6]: 3.2
- Drug-Effect Questionnaire Like Drug, mean peak effect [6]: 14.9
- Drug-Effect Questionnaire Nausea-Queasy-Sick, mean peak effect [6]: 10.6
- Drug-Effect Questionnaire Nervous-Anxious, mean peak effect [6]: 6.6
- Drug-Effect Questionnaire Performance Impaired, mean peak effect [6]: 5.5
- Drug-Effect Questionnaire Performance Improved, mean peak effect [6]: 4.0
- Drug-Effect Questionnaire Restless, mean peak effect [6]: 0.2
- Drug-Effect Questionnaire Rush, mean peak effect [6]: 12.4
- Drug-Effect Questionnaire Shaky-Jittery, mean peak effect [6]: 3.1
- Drug-Effect Questionnaire Sluggish-Fatigued-Lazy, mean peak effect [6]: 1.1
- Drug-Effect Questionnaire Stimulated, mean peak effect [6]: 10.5
- Drug-Effect Questionnaire Talkative-Friendly, mean peak effect [6]: 11.2
- Drug-Effect Questionnaire Willing to Pay For, mean peak effect [6]: 11.7
- Drug-Effect Questionnaire Willing to Take Again, mean peak effect [6]: 11.6
